The source made the active and inactive calls. No cut-off for these calls is given here.
What was measured:
[1] = test system: Botrytis cinerea; experiment: Antifungal activity against Botryotinia fuckeliana 2100 assessed as inhibition of mycelial growth at 100 ppm measured after 6 days; format: functional
[2] = test system: Botrytis cinerea; experiment: Antifungal activity against Botryotinia fuckeliana 2100 assessed as inhibition of mycelial growth at 200 ppm measured after 6 days; format: functional; settings: Botrytis cinerea, 2100, 144 h; read-out: GI
[3] = test system: Colletotrichum gloeosporioides; experiment: Antifungal activity against Colletotrichum gloeosporioides 20122 assessed as inhibition of mycelial growth at => 100 ppm measured after 24 to 144 hr; format: functional, organism-based

| SMILES | growth inhibition (GI) [1] | also measured |
| --- | --- | --- |
| CC1(C)C2=CC[C@@](C)(O)CC[C@]2(C)CC[C@H]1O | inactive |  |
| CC1(C)CCC[C@@]2(C)CC[C@](C)(O)CC=C12 [WIDDROL] |  | inhibition of growth at 200 ppm [2]: 70.7%; inhibition of growth at 100 ppm ([1]; Botrytis cinerea, 2100, 144 h, read-out: GI): 60%; growth inhibition (GI) [3]: inactive |
| C[C@@]1(O)CC=C2[C@@](C)(CCC[C@@]2(C)CO)CC1 | inactive |  |
| CC1(C)C2=CC[C@@](C)(O)CC[C@]2(C)CC[C@@H]1O | inactive |  |
| CC1(C)C(=O)CC[C@@]2(C)CC[C@](C)(O)CC=C12 | inactive |  |
| CC1(C)CC[C@@H]2O[C@]13[C@H](O)C[C@@](C)(O)CC[C@]23C | inactive |  |

From ChEMBL document CHEMBL3044887, “The antifungal activity of widdrol and its biotransformation by Colletotrichum gloeosporioides (penz.) Penz. & Sacc. and Botrytis cinerea Pers.: Fr” (2006)
